Results taken from PMC11187260, “Unraveling the interconversion pharmacokinetics and oral bioavailability of the major ginger constituents: [6]-gingerol, [6]-shogaol, and zingerone after single-dose administration in rats” (Frontiers in Pharmacology, 2024).
Where two headings read alike, the source gives them in different places.

Assays:
[1] = Safety evaluation: physical appearance and blood chemistry after single i.v. or p.o. dose; assay type: in vivo, Female Sprague Dawley rats; settings: for ALP / ALT / AST / BUN / Creatinine: post-dose (24 h), mean ± SD n=6; for Physical appearance: post-dose
Method: (§1) This study is composed of two sections; the first section involves an investigation of the interconversion pharmacokinetics of the pure compounds, and the second focuses on tissue distribution. All rats were transferred to metabolic cages and fasted overnight for at least 10 h. The animals were then randomly divided into four groups (6 rats/group) to receive a single intravenous (i.v.) administration of either 6G, 6S, zingerone, or vehicle via the lateral tail vein at a dosage of 3 mg/kg. After a 7-week washout period, the rats received 30 mg/kg of the same test compounds through a single oral (p.o.) administration. Following each administration, blood samples (300 µL) were collected in heparinized tubes from the lateral tail vein (while rats were under anesthesia with isoflurane) at specified time points: 0.083, 0.25, 0.5, 1, 1.5, 2, 3, 4, 6, 8, and 24 h after administration. An additional 1 mL of blood sample was collected from each rat at pre-dose (0 h) and post-dose (24 h) for clinical laboratory testing and safety evaluation. All heparinized blood samples were initially centrifuged at 5,000 × g, 4 °C, for 10 min. Subsequently, the plasma was carefully transferred to a cryotube as an aliquot sample and then stored at −40 °C until analysis. Urine and feces were collected during the intervals of 0–24 h and 24–48 h post-dosing, and their weights and volumes were documented. All collected urine and feces samples were stored at −40 °C until analysis.
Plasma samples were collected at baseline (T0) and T24 h for the determination of blood chemistry, including levels of blood urea nitrogen (BUN), creatinine, aspartate transaminase (AST), alanine transaminase (ALT), and alkaline phosphatase (ALP). The analyses were conducted by the Exclusive Veterinary Professional Laboratory Center (Bangkok, Thailand). The creatinine level was determined using an enzymatic oxidase assay, while AST and ALT levels were determined using the procedure of the International Federation of Clinical Chemistry (IFCC) without pyridoxal phosphate activation.

[2] = Pharmacokinetics and oral bioavailability after single oral administration (30 mg/kg), plasma LC-MS/MS; assay type: in vivo, Female Sprague Dawley rats; settings: for bioavailability / AUC(0-inf) / AUC(0-t) / Tmax: plasma, 30 mg/kg; for AUC(0-t): read-out: AUC(0-t); for Tmax: median [IQR]; for presence of parent compound in plasma: following oral administration
Method: as §1
Plasma samples were processed through protein precipitation. In brief, 50 µL of plasma was mixed with 200 µL of methanol containing 50 ng/mL of IS (dihydrocapsaicin). The mixtures were vortexed and centrifuged at 14,000 × g at 4 °C for 10 min. The supernatant was filtered through a […] PVDF membrane (Chrome Tech, MN, USA) before analysis.
(§2) Investigation of glucuronide conjugations followed a previously published method with some modification ([Wang et al., 2017]; [Songvut et al., 2023]). A 50 μL aliquot of plasma, urine, or feces sample was incubated at 37 °C for a minimum of 30 min with 50 μL of β-glucuronidase (3,000 U/mL) in a sodium phosphate buffer (pH 6.8). For sample extraction, 150 μL of methanol containing 50 μg/L of IS was pipetted into the pre-incubated samples. Subsequently, the mixtures were vortexed for 10 min and then centrifuged at 14,000 × g at 4 °C for 10 min. The supernatants were filtered through a […] PVDF membrane (Chrome Tech, MN, United States) and then analyzed using the validated LC-MS/MS method.
Quantitative analysis was conducted using liquid chromatography-tandem mass spectrometry (LC-MS/MS) with a Nexera X2 LCMS-8060NX instrument (Shimadzu, Japan). The instrument included a CBM-40lite system controller, CTO-40C column oven, SIL-40C XR autosampler, LC-40D XR solvent pump unit, FCV-DGU-403 degasser, and 20AH2 switching valve. The LC-MS/MS system was operated with a binary pump and equipped with a triple quadrupole mass spectrometer.
Pharmacokinetic parameters were assessed using PK Solutions software (version 2.0) with non-compartmental analysis. The AUC was calculated using the Linear-Log Trapezoidal Method. The maximum plasma concentration (Cmax) and time to reach maximum plasma concentration (Tmax) were taken directly from the graph.
(§3) Plasma concentration-time profiles were plotted using GraphPad Prism 9.3.0 (GraphPad Software, USA). The absolute oral bioavailability was calculated as follows: F = (AUC p.o./dose p.o.)/(AUC i.v./dose i.v.). The percentage recovery of each administered compound was calculated as the total amount of the drug found in urine or feces divided by the administered dose. The tissue-to-plasma concentration ratios (K p) were calculated by dividing the concentration in the tissue by the corresponding plasma concentration at the respective sampling time point.

[3] = Percent recovery in urine and feces after intravenous or oral administration; assay type: in vivo, Female Sprague Dawley rats; settings: for parent compound recovered in urine: during 24–48 h; for dose excreted: female, Sprague Dawley, rat, % of administered dose; for unchanged form in fecal excretion: within 48 h after intravenous or oral administration
Method: as §1
(§4) Urine samples were centrifuged, and 50 µL of urine was extracted with 200 µL of 100% methanol. The mixture was vortexed for 10 min and subsequently centrifuged at 14,000 × g at 4 °C for 10 min. Feces and organs were weighed and homogenized with methanol (50:50% w/v). The supernatants of the extracted urine, feces, and organs were also filtered through a […] PVDF membrane (Chrome Tech, MN, USA) before analysis.
as §2, §3

[4] = Tissue distribution after single oral administration (30 mg/kg); assay type: in vivo; settings: 1–2 h after oral 30 mg/kg
Method: Tissue distribution analysis was carried out after a 7-week washout period following the completion of the pharmacokinetic study. The animals received a single oral administration of either 6G, 6S, zingerone, or vehicle at a dosage of 30 mg/kg. Euthanasia was performed using an overdose of isoflurane (>10%) in an induction chamber, either one or 2 h after oral gavage (3 rats/timepoint), and death was confirmed by exsanguination. Subsequently, the stomach, small intestine, liver, large intestine, kidneys, heart, lung, hippocampus, cortex, spleen, ovaries, and spinal cord were collected. The dissected organs were thoroughly cleaned with a cold normal saline solution and the connective tissue was removed. The organs were then precisely weighed before being stored at −40 °C. All processes during tissue collection were performed on ice.
as §4, §3

[5] = female, Sprague-Dawley, rat, po, p.o. 30 mg/kg vs i.v. 3 mg/kg of the pure compound, mean ± SD n=6, read-out: %Oral bioavailability
[6] = female, Sprague-Dawley, rat, po, p.o. 30 mg/kg vs i.v. 3 mg/kg of the pure compound, range among rats, read-out: %Oral bioavailability (range)
[7] = female, Sprague-Dawley, rat, po, p.o. 30 mg/kg vs i.v. 3 mg/kg, pure compounds, read-out: absolute oral bioavailability (upper bound)
[8] = female, Sprague-Dawley, rat, po, plasma analyte after [6]-gingerol p.o. 30 mg/kg, mean ± SD n=6
[9] = female, Sprague-Dawley, rat, po, plasma analyte after [6]-gingerol p.o. 30 mg/kg
[10] = feces, iv, 3 mg/kg, intravenous administration 3 mg/kg of parent compound, read-out: % Recovery excretion, feces T 0–24 h
[11] = feces, po, 30 mg/kg, oral administration 30 mg/kg of parent compound, read-out: % Recovery excretion, feces T 0–24 h
[12] = feces, po, 30 mg/kg, oral administration 30 mg/kg of parent compound, read-out: % Recovery excretion, feces T 24–48 h
[13] = urine, iv, 3 mg/kg, intravenous administration 3 mg/kg of parent compound, read-out: % Recovery excretion, urine T 0–24 h
[14] = urine, iv, 3 mg/kg, intravenous administration 3 mg/kg of parent compound, read-out: % Recovery excretion, urine T 24–48 h
[15] = urine, po, 30 mg/kg, oral administration 30 mg/kg of parent compound, read-out: % Recovery excretion, urine T 0–24 h
[16] = urine, po, 30 mg/kg, oral administration 30 mg/kg of parent compound, read-out: % Recovery excretion, urine T 24–48 h
[17] = female, Sprague-Dawley, rat, po, plasma analyte after [6]-shogaol p.o. 30 mg/kg, mean ± SD n=6

Compound	ALP ([1]; i.v. 3 mg/kg)	ALT ([1]; i.v. 3 mg/kg)	AST ([1]; i.v. 3 mg/kg)	BUN ([1]; i.v. 3 mg/kg)	Creatinine ([1]; i.v. 3 mg/kg)	ALP ([1]; p.o. 30 mg/kg)	ALT ([1]; p.o. 30 mg/kg)	AST ([1]; p.o. 30 mg/kg)	BUN ([1]; p.o. 30 mg/kg)	Creatinine ([1]; p.o. 30 mg/kg)	Physical appearance ([1]; i.v. 3 mg/kg)	Physical appearance ([1]; p.o. 30 mg/kg)	bioavailability [2, 5]	bioavailability [2, 6]	bioavailability [2, 7]	AUC(0-inf) [2, 8]	AUC(0-t) [2, 8]	Tmax [2, 9]	presence of parent compound in plasma [2]	parent compound recovered in urine [3]	further results
CCCCC[C@H](O)CC(=O)CCc1ccc(O)c(OC)c1 [[6]-gingerol]	44.67 ± 7.09 U/L	20.33 ± 2.42 U/L	65.83 ± 19.66 U/L	12.83 ± 2.64 mg/dL	0.73 ± 0.04 mg/dL	32.67 ± 7.45 U/L	21.23 ± 2.44 U/L	60.50 ± 7.12 U/L	12.17 ± 2.86 mg/dL	0.66 ± 0.03 mg/dL	Normal	Normal	0.17 ± 0.11%	0.1 to 0.4%	< 2%	92.1 ± 26.9 ng·h/mL	92.1 ± 26.9 ng·h/mL	4.8 min	up to 4 h	less than 1%	plasma level of converted product ([2]; after oral administration of 6S 30 mg/kg): undetectable; time to detectable plasma levels ([2]; oral administration of pure compound): ≤ 5 min; time to reach peak plasma concentration (Cmax) ([2]; parent compound after oral administration 30 mg/kg): 5 to 45 min; dose excreted [3, 10]: 0.005 ± 0.002%; dose excreted ([3]; feces, iv, 3 mg/kg, intravenous administration 3 mg/kg of parent compound, read-out: % Recovery excretion, feces T 24–48 h): 0.005 ± 0.001%; dose excreted [3, 11]: 0.001 ± 0.001%; dose excreted [3, 12]: < 0.001%; dose excreted [3, 13]: 0.623 ± 0.706%; dose excreted [3, 14]: 0.008 ± 0.005%; dose excreted [3, 15]: 0.1 ± 0.102%; dose excreted [3, 16]: 0.002 ± 0.001%; unchanged form in fecal excretion [3]: < 0.1%
CCCCC/C=C/C(=O)CCc1ccc(O)c(OC)c1 [[6]-shogaol]	49.50 ± 14.46 U/L	18.83 ± 3.92 U/L	59.50 ± 5.61 U/L	14.17 ± 1.72 mg/dL	0.73 ± 0.02 mg/dL	39.17 ± 11.20 U/L	22.50 ± 5.89 U/L	63.83 ± 11.77 U/L	14.00 ± 2.00 mg/dL	0.71 ± 0.02 mg/dL	Normal	Normal	0.15 ± 0.1%	0.1 to 0.31%	< 2%	10.3 ± 4.14 ng·h/mL	10.2 ± 4.01 ng·h/mL	15 min	up to 4 h	less than 1%	Tolerability ([1]; single i.v. 3 mg/kg or p.o. 30 mg/kg): exhibited tolerance; AUC(0-inf) [2, 17]: 66.9 ± 30.5 ng·h/mL; AUC(0-t) [2, 17]: 66.9 ± 30.5 ng·h/mL; Tmax ([2]; female, Sprague-Dawley, rat, po, plasma analyte after [6]-shogaol p.o. 30 mg/kg): 45 min; Cmax [2, 17]: 51.8 ± 20.9 ng/mL; distribution to brain regions (hippocampus and cortex) [4]: lacking presence in key brain regions; dose excreted [3, 10]: < 0.001%; dose excreted [3, 11]: 0.001 ± 0.001%; dose excreted [3, 12]: 0.002 ± 0.002%; dose excreted [3, 13]: 0.003 ± 0.002%; dose excreted [3, 14]: < 0.001%; dose excreted [3, 15]: 0.001 ± 0.001%; dose excreted [3, 16]: < 0.001%; unchanged form in fecal excretion [3]: < 0.1%
